Data from patent publication US12295396B2, “Antagonists of T2R54 and compositions and uses thereof” (Firmenich Incorporated, priority 2018, dated 2025).
Where two headings read alike, the source gives them in different places.

Target: T1, hT2R54 (Homo sapiens, UniProt P59534)
T1 construct: expressed in transfected cells; it overexpresses a promiscuous G protein
T1 sequence (P59534 1-338): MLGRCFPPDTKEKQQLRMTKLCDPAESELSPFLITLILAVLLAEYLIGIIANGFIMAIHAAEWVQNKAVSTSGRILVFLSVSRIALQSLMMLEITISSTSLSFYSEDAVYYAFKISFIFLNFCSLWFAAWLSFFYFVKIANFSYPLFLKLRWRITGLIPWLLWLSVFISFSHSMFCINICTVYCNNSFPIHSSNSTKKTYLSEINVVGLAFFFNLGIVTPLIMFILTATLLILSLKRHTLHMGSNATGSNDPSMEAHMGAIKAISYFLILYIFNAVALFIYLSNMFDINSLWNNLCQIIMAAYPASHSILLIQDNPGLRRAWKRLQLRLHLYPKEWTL
Test: Cell-based assay for measuring hT2R54 inhibition (FLIPR calcium, Fluo4AM, acetaminophen as bitter agonist)
Details: read-out: hT2R54 IC50
In short: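 Cells stably co-expressing hT2R54 and a promiscuous G protein were loaded with Fluo4AM and given acetaminophen dose series, alone or with fixed concentrations of test compound. On FLIPR, baseline was recorded for 10 s and fluorescence for 3 min after addition. IC50 is the concentration halving the acetaminophen-alone response.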

[1] = Table 5, cells stably expressing hT2R54 and a promiscuous G protein

Row | IC50 (Table 8) [nM] | Structure (SMILES) | also measured
1 |  | COc1cc2c(cc1NC(=O)CN1CCOCC1)CCC2 [compound 449] | IC50 (Table 4, cells stably expressing hT2R54 and a promiscuous G protein): 804 nM
2 |  | CCNC(=O)C1CCCN(CC(=O)Nc2cc3c(cc2OC)OCO3)C1 (stereo not shown) [compound 450] | IC50 [1]: 668 nM
3 |  | COc1cc2c(cc1NC(=O)CN(C)CCC(=O)NCc1ccccc1)OCO2 [compound 451] | IC50 [1]: 406 nM
4 |  | COc1cc2c(cc1NC(=O)CN1CCCC(C(=O)NCc3ccccc3)C1)OCO2 (stereo not shown) [compound 452] | IC50 [1]: 603 nM
5 |  | CNC(=O)C1CCCN(CC(=O)Nc2cc3c(cc2OC)OCO3)C1 (stereo not shown) [compound 453] | IC50 [1]: 969 nM
6 | 300 | CC(=O)c1cc2c(cc1NC(=O)CC1CCN(C(=O)c3ccncc3)CC1)OCO2 [compound 454] | 
7 | 6000 | CC(=O)c1cc2c(cc1NC(=O)CC1CCCN(C(=O)c3cc(O)cc(O)c3)C1)OCO2 (stereo not shown) [compound 455] | 
8 | 1300 | CC(=O)c1cc2c(cc1NC(=O)CC1CCCN(C(=O)c3ccc(O)c(O)c3)C1)OCO2 (stereo not shown) [compound 456] | 
9 | 140 | CC(=O)c1cc2c(cc1NC(=O)CC1CCCN(C(=O)c3ccc(O)cc3O)C1)OCO2 (stereo not shown) [compound 457] | 
10 | 160 | CC(=O)c1cc2c(cc1NC(=O)CC1CCCN(C(=O)c3cc(O)ccc3O)C1)OCO2 (stereo not shown) [compound 458] | 
11 | 95 | CC(=O)c1cc2c(cc1NC(=O)CC1CCN(C(=O)c3cnn[nH]3)CC1)OCO2 [compound 459] | 
12 | 300 | CC(=O)c1cc2c(cc1NC(=O)CC1CCN(C(=O)c3ncn[nH]3)CC1)OCO2 [compound 460] | 
13 | 150 | CC(=O)c1cc2c(cc1NC(=O)CC1CCN(C(=O)c3cc[nH]n3)CC1)OCO2 [compound 461] | 
14 | 30 | CC(=O)c1cc2c(cc1NC(=O)CC1CCN(C(=O)c3ncc[nH]3)CC1)OCO2 [compound 462] | 
15 | 400 | CC(=O)c1cc2c(cc1NC(=O)CC1CCN(C(=O)c3c[nH]c(C)n3)CC1)OCO2 [compound 463] | 
16 | 200 | CC(=O)c1cc2c(cc1NC(=O)CC1CCN(C(=O)c3n[nH]cc3C)CC1)OCO2 [compound 464] | 
17 | 46 | CC(=O)c1cc2c(cc1NC(=O)CC1CCN(C(=O)c3nc(C)c[nH]3)CC1)OCO2 [compound 465] | 
18 | 700 | CC(=O)c1cc2c(cc1NC(=O)CC1CCN(C(=O)c3cc(C)on3)CC1)OCO2 [compound 466] | 
19 | 58 | CC(=O)c1cc2c(cc1NC(=O)CC1CCN(C(=O)c3ccc(C)o3)CC1)OCO2 [compound 467] | 
20 | 70 | COCc1ccc(C(=O)N2CCC(CC(=O)Nc3cc4c(cc3C(C)=O)OCO4)CC2)o1 [compound 468] | 
21 | 500 | COCC(=O)N1CCC(CC(=O)Nc2cc3c(cc2C(C)=O)OCO3)CC1 [compound 469] | 
22 | 700 | COCCOCC(=O)N1CCC(CC(=O)Nc2cc3c(cc2C(C)=O)OCO3)CC1 [compound 470] | 
23 | 300 | CC(=O)c1cc2c(cc1NC(=O)CC1CCN(C(=O)[C@H]3CCCO3)CC1)OCO2 [compound 471] | 
24 | 300 | CC(=O)c1cc2c(cc1NC(=O)CC1CCN(C(=O)[C@@H]3CCCO3)CC1)OCO2 [compound 472] | 
25 | > 50000 | CC(=O)c1cc2c(cc1NC(=O)CC1CCN(C(=O)C3CCN(C)C3)CC1)OCO2 (stereo not shown) [compound 473] | 
26 | 130 | CC(=O)c1cc2c(cc1NC(=O)CC1CCN(C(=O)[C@H]3CCC(=O)O3)CC1)OCO2 [compound 474] | 

Row | IC50 (Table 8) [nM] | Structure (SMILES) | also measured
27 | 300 | CC(=O)c1cc2c(cc1NC(=O)CC1CCN(C(=O)CC3CCCO3)CC1)OCCO2 (stereo not shown) [compound 475] | 
28 | 300 | CC(=O)c1cc2c(cc1NC(=O)CC1CCN(C(=O)CC3CCCO3)CC1)OCO2 (stereo not shown) [compound 476] | 
29 | 400 | CC(=O)c1cc2c(cc1NC(=O)CC1CCN(C(=O)CC3CCOC3)CC1)OCO2 (stereo not shown) [compound 477] | 
30 | > 10000 | CC(=O)c1cc2c(cc1NC(=O)CC1CCN(C(=O)CN3CCCC3)CC1)OCO2 [compound 479] | 
31 | 1400 | COC(=O)c1cc2c(cc1NC(=O)CC1CCCN(C(C)=O)C1)OCO2 (stereo not shown) [compound 480] | 
32 | 2200 | COC(=O)c1cc2c(cc1NC(=O)CC1CCCN(C(=O)C3CCCO3)C1)OCO2 (stereo not shown) [compound 481] | 
33 | 1400 | COC(=O)c1cc2c(cc1NC(=O)CC1CCN(C(=O)C3CCCO3)CC1)OCO2 (stereo not shown) [compound 482] | 
34 | 640 | COCc1ccc(C(=O)N2CCC(CC(=O)Nc3cc4c(cc3C(=O)OC)OCO4)CC2)cc1 [compound 483] | 
35 | 460 | COC(=O)c1cc2c(cc1NC(=O)CC1CCN(C(=O)c3ccncc3)CC1)OCO2 [compound 484] | 
36 | 240 | CC(=O)c1cc2c(cc1NC(=O)CC1CCN(C(=O)c3cccnc3)CC1)OCCO2 [compound 485] | 
37 | 188 | COCc1cccc(C(=O)N2CCC(CC(=O)Nc3cc4c(cc3C(C)=O)OCCO4)CC2)c1 [compound 486] | 
38 | 250 | CC(=O)c1cc2c(cc1NC(=O)CC1CCN(C(=O)c3ccc(CO)o3)CC1)OCCO2 [compound 487] | 
39 | 15 | COCc1ccc(C(=O)N2CCC(CC(=O)Nc3cc4c(cc3C(C)=O)OCCO4)CC2)s1 [compound 488] | 
40 | 150 | COCc1ccc(C(=O)N2CCC(CC(=O)Nc3cc4c(cc3C(C)=O)OCCO4)CC2)o1 [compound 489] | 
41 | 160 | CC(=O)c1cc2c(cc1NC(=O)CC1CCN(C(=O)c3cc(CO)on3)CC1)OCCO2 [compound 490] | 
42 | 160 | COCc1cc(C(=O)N2CCC(CC(=O)Nc3cc4c(cc3C(C)=O)OCCO4)CC2)no1 [compound 491] | 
43 | 450 | CC(=O)c1cc2c(cc1NC(=O)CC1CCN(C(=O)C3CCCO3)CC1)OCCO2 (stereo not shown) [compound 493] | 
44 | 300 | CC(=O)c1cc2c(cc1NC(=O)CC1CCN(C(=O)[C@@H]3CCCO3)CC1)OCCO2 [compound 494] | 
45 | 200 | CC(=O)c1cc2c(cc1NC(=O)CC1CCN(C(=O)[C@H]3CCCO3)CC1)OCCO2 [compound 495] | 
46 | > 10000 | COc1cc2c(cc1NC(=O)CC1CCN(C(C)=O)CC1)OCO2 [compound 496] | 
47 | > 10000 | COc1cc2c(cc1NC(=O)CC1CCN(C(=O)C3CCCO3)CC1)OCO2 (stereo not shown) [compound 497] | 
48 | > 10000 | COc1cc2c(cc1NC(=O)CC1CCN(C(=O)Cc3ccco3)CC1)OCO2 [compound 498] | 
49 | > 10000 | COc1cc2c(cc1NC(=O)CC1CCN(C(=O)c3nc(C)c[nH]3)CC1)OCO2 [compound 499] | 
50 | 4000 | COc1cc2c(cc1NC(=O)CC1CCN(C(=O)c3ccc(C)o3)CC1)OCO2 [compound 500] | 
51 | > 50000 | COc1cc2c(cc1NC(=O)CC1CCN(C(=O)c3ccncc3)CC1)OCO2 [compound 501] | 
52 | 170 | CC(=O)c1cc2c(cc1NC(=O)CC1CCCN(C(=O)c3ccncc3)C1)OCO2 (stereo not shown) [compound 502] | 

Row | IC50 (Table 8) [nM] | Structure (SMILES) | also measured
53 | 99 | COCc1ccc(C(=O)N2CCCC(CC(=O)Nc3cc4c(cc3C(C)=O)OCO4)C2)cc1 (stereo not shown) [compound 503] | 
54 | 159 | CC(=O)c1cc2c(cc1NC(=O)CC1CCCN(C(=O)c3nc(C)c[nH]3)C1)OCO2 (stereo not shown) [compound 504] | 
55 | 130 | CC(=O)c1cc2c(cc1NC(=O)CC1CCCN(C(=O)c3ncc[nH]3)C1)OCO2 (stereo not shown) [compound 505] | 
56 | 113 | CC(=O)c1cc2c(cc1NC(=O)CC1CCCN(C(=O)c3cccnc3)C1)OCO2 (stereo not shown) [compound 506] | 
57 | 275 | CC(=O)c1cc2c(cc1NC(=O)CC1CCCN(C(=O)c3ccccn3)C1)OCO2 (stereo not shown) [compound 507] | 
58 | 1200 | COC(=O)c1cc2c(cc1NC(=O)CC1CCCN(C(C)=O)C1)OCCO2 (stereo not shown) [compound 508] | 
59 | 180 | CC(=O)c1cc2c(cc1NC(=O)CC1CN(C(C)=O)CCO1)OCO2 (stereo not shown) [compound 509] | 
60 | 150 | CC(=O)c1cc2c(cc1NC(=O)CC1CN(C(=O)C3CCCO3)CCO1)OCO2 (stereo not shown) [compound 510] | 
61 | > 10000 | COc1cc2c(cc1NC(=O)CC1CCCN(C(=O)CC(C)C)C1)OCO2 (stereo not shown) [compound 511] | 
62 | 7700 | COc1cc2c(cc1NC(=O)CC1CCCN(C(=O)c3ccco3)C1)OCO2 (stereo not shown) [compound 512] | 
63 | 2700 | COc1cc2c(cc1NC(=O)CC1CCCN(C(=O)c3ccccc3)C1)OCO2 (stereo not shown) [compound 513] | 
64 | 500 | CCS(=O)(=O)N1CCCC(CC(=O)Nc2cc3c(cc2OC)OCO3)C1 (stereo not shown) [compound 515] | 
65 |  | CC(=O)c1cc2c(cc1NC(=O)CC(C)C)OCO2 [compound 516] | IC50 (Table 9): 3000 nM
66 |  | CC(=O)c1cc2c(cc1NC(=O)CC1CCCC1)OCO2 [compound 517] | IC50 (Table 9): 414 nM
67 |  | CC(=O)c1cc2c(cc1NC(=O)Cc1c(C)noc1C)OCO2 [compound 518] | IC50 (Table 9): 3800 nM
68 |  | CC(=O)c1cc2c(cc1NC(=O)CC1CCCN(C(=O)OC(C)(C)C)C1)OCO2 (stereo not shown) [compound 519] | IC50 (Table 9): 900 nM
69 |  | COc1cc2c(cc1NC(=O)CC1CCCC1)OCO2 [compound 520] | IC50 (Table 9): 308 nM
70 |  | COc1cc2c(cc1NC(=O)CC1CCCCO1)OCO2 (stereo not shown) [compound 521] | IC50 (Table 9): 2260 nM
71 |  | COc1ccccc1CC(=O)Nc1cc2c(cc1OC)OCO2 [compound 522] | IC50 (Table 9): 886 nM
72 |  | CC(=O)c1cc2c(cc1NC(=O)Cc1ccco1)OCO2 [compound 523] | IC50 (Table 9): 2310 nM
73 |  | COc1cc2c(cc1NC(=O)Cc1ccsc1)OCO2 [compound 524] | IC50 (Table 9): 868 nM
74 |  | COc1cc2c(cc1NC(=O)C(C)C1CCN(C(=O)OC(C)(C)C)CC1)OCO2 (stereo not shown) [compound 525] | IC50 (Table 9): 3000 nM
75 |  | COC(=O)c1cc2c(cc1NC(=O)CC1CCN(C(=O)OC(C)(C)C)CC1)OCO2 [compound 528] | IC50 (Table 9): ~1000 nM
76 |  | COC(=O)c1cc2c(cc1NC(=O)CC1CCOCC1)OCCO2 [compound 529] | IC50 (Table 9): 12000 nM
